Experimental data reported in US10441620B2, “Method for protection of bladder from damage” (Wellstrong Biotech Co., Ltd., priority 2016, dated 2019).

Assay: CUPRAC assay for total antioxidants
Settings: absorbance at 450 nm
Protocol: The CUPRAC assay was utilized to determine the total antioxidant capacity. This assay relies on the electron donating capabilities of antioxidants to reduce the copper ion. The CUPRAC working solution consisted of 10 mM copper (II) chloride dihydrate, 1M ammonium acetate, and 7.5 mM neocuproine. 0.15 mL of the above three solutions were added to 0.15 mL of each sample and allowed to react for 30 minutes at room temperature, after which the absorbance was read at 450 nm in a Hitachi U-2001 spectrophotometer.

In the case of `O=C1O[C@H]([C@@H](O)CO)C(O)=C1O` [ascorbic acid], the “total antioxidant activity (antioxidant value of standard curve)” value is reported as 27±1.7 mg Ascorbic acid per mOD optical density.
